Reference: EP0658565A1, “Oral products” (UNILEVER PLC, priority 1993, dated 1995)

Experiments:
S.mutans = conditions: pH = 7; acid production by S.mutans
plaque bacteria = assay: in vitro anti-plaque test involving saliva reinoculation; format: cell-based; conditions: 20 minutes on plaque grown on enamel discs

Compound | Concentration of Sn²⁺ in mmole to reach 100 % acid inhibition (S.mutans) | Relative Anti-Plaque Activity (% bacteria killed vs. control growth) (plaque bacteria; Sn^II conc. 2406 ppm) | Relative Anti-Plaque Activity (% bacteria killed vs. control growth) (plaque bacteria; Sn^II conc. 3594 ppm) | Relative Anti-Plaque Activity (% bacteria killed vs. control growth) (plaque bacteria; Sn^II conc. 6000 ppm) | Relative Anti-Plaque Activity (% bacteria killed vs. control growth) (plaque bacteria; Sn^II conc. 1188 ppm)
stannous glucose-6-phosphate [Sn G-6-P] | 0.25 mmol | 22% | 75% | 88% | 
O=P([O-])([O-])O[C@H]1O[C@H](CO)[C@@H](O)[C@H](O)[C@H]1O.[Sn+2] [Sn G-1-P, stannous glucose-1-phosphate] | 0.2 mmol |  | 96% | 98% | 32%
O=P([O-])([O-])OP(=O)([O-])[O-].[Sn+2].[Sn+2] [Sn₂P₂O₇, stannous pyrophosphate, reference compound] | 1.02 mmol |  |  | 76% | 
